Values of other authors in patent US20220241165A1, “ORAL CARE COMPOSITIONS COMPRISING OXALIC ACID” (The Procter & Gamble Company, priority 2021, published 2022).

O=C(O)C(=O)O [oxalate ion]
pKa: 4.1
